Values quoted from earlier work in patent US10813929B2, “Treating cancer with ATR inhibitors” (VERTEX PHARMACEUTICALS INCORPORATED, priority 2011, dated 2020).

System: pancreatic cancer
Conditions: treatment with gemcitabine, increased from 10%; cited from earlier work

For `Nc1ccn([C@@H]2O[C@H](CO)[C@@H](O)C2(F)F)c(=O)n1` [gemcitabine], the 5-year survival is given as 20%.
